One series concerns the target T1, human thrombin (Homo sapiens, UniProt P00734).
T1 construct: forms a lipoprotein complex with prothrombin (factor II) and cleaves it to form thrombin (factor IIa) itself
The experiment in a line: Inhibition of human thrombin hydrolysing the chromogenic substrate S-2238 (Ki by Dixon plot). Format: biochemical. The method, then:
(a) Inhibition of human thrombin hydrolysing the chromogenic substrate S-2238 (for details of the method, see M. F. Scully and V. V. Kakkar, Clin. Chim. Acta 1977.79.595). Series of measurements were carried out using a number of different inhibitor concentrations and at least two different substrate concentrations. The inhibitory constant Ki was determined graphically, using a Dixon plot (M. Dixon, Biochem. J. 1953.55.170)

For series [1] the following is noted: rabbit.
Method: (§1) These tests were carried out in rabbits, using between 0.1-4 mg/Kg of the inhibitor and comparing the KCCT or the thrombin clotting time in blood samples taken before and at various time intervals after the administration of inhibitors.
Series [2] can be described thus: In vivo half life in plasma.
Method: as §1

The record followed here is US4638047A, “Enzyme inhibition” (priority 1983, dated 1987).

Read-outs that look alike come from different tables or passages of the source. Residues, ends and D or L forms follow the SMILES beside them.

One may read the Ki as the dissociation constant of the complex between target and ligand, obtained from inhibition or displacement. Compound `CCNC(=O)[C@@H]1CCCN1C(=O)CCC(=O)[C@@H](CCCNC(=N)N)NC(=O)[C@@H]1CCCN1C(=O)[C@@H](Cc1ccccc1)NC(=O)OC(C)(C)C` [Example H-170] showed a Ki at human thrombin of 68 µM. As to `CC(C)(C)OC(=O)N[C@H](Cc1ccccc1)C(=O)N1CCC[C@H]1C(=O)N[C@@H](CCCNC(=N)N)CNCC(=O)N1CCC[C@H]1C(=O)O` [Example H-172], affinity on human thrombin was put at a Ki of 112 µM. For the compound `CCNC(=O)[C@@H]1CCCN1C(=O)CCC(=O)[C@H](CCCNC(=N)N)NC(=O)[C@@H]1CCCN1C(=O)[C@H](N)Cc1ccccc1` [Example H-179], in series [1], the “in vivo half life in plasma” value stood at 18 min. Further, on human thrombin, the Ki came to 6 µM. `CCNC(=O)[C@@H](NC(=O)[C@H](CCCNC(=N)N)NC(=O)[C@@H]1CCCN1C(=O)CCC(=O)[C@H](CCCNC(=N)N)NC(=O)[C@@H]1CCCN1C(=O)[C@H](N)Cc1ccccc1)C(C)C` [Example H-200] (HELM PEPTIDE1{[dF].P.[N=C(N)NCCC[C@H](N[*:1])C(=O)CCC(=O)[*:2]].P.R.V.[CCN[*:1]]}$$$$V2.0) gave a Ki on human thrombin of 3 µM. This lies in the single-digit micromolar range. For heparin, the “in vivo half life in plasma” value in series [2] worked out at 15 min.
